Source: patent US5661182A, “Method for lowering oxygen affinity of hemoglobin in redcell suspensions, in whole blood and in vivo” (Virginia Commonwealth University, priority 1995, dated 1997)
Entries after “also recorded” stand apart in the source; their conditions may differ.

Assays:
[1] = biological target: HbA (normal adult hemoglobin) (Homo sapiens, UniProt P68871+P69905); experiment: Oxygen equilibrium of isolated human Hb solutions (HbA p50); format: biochemical; settings: human Hb solution; for p50 shift at increasing chloride concentration: 0.5 mM, chloride 0-400 mM; for HbA(p50): effector 0.5 mM, pH 7.2, 100 mM NaCl, 25 °C
From the text: (§1) L3,5 and L3,4,5 were provided by Dr. Lalezari (Montefiore Hospital, New York); RSR-4 [2-[4-[[(3,5-dichloroanilino)carbonyl]methyl]phenoxy]-2-methylpropionic acid]and RSR13 [2-4-[[(3,5- dimethylanilino)carbonyl]methyl]phenoxy]-2-methylpropionic acid] have been synthesized following the procedure described in Randad et al. (J. Med. Chem. 34,752 (1991)). Human serum albumin (HSA), bovine serum albumin (BSA) and 4,4'diisothiocyanatostilbene-2,2'-disulfonate (DIDS) were purchased from Sigma (St. Louis, Mo.). Due to their low solubility in aqueous buffer, 10 mM stock solutions of the compounds were prepared in a slight exccess of sodium bicarbonate and back-titrated to pH 7.4. For example, RSR-4 or RSR-13 was dissolved at 60° C. in a 140 mM NaCl and 50 mM bis-Tris buffer at room temperature upon progressive addition of NaHCO3 to obtain 10 mM stock solutions. The pH was carefully adjusted to 7.4 after complete solubilization and before use of the solutions. Fresh solutions were prepared each week. Stock solutions of DIDS (1 mM) were prepared, in the dark, on the day of the experiments in a pH 7.4 buffer. Human serum albumin (defatted HSA) and bovine serum albumin (BSA) were prepared freshly as 1 mM stock solutions, pH 7.4. Equilibrium Measurements. The allosteric modulation of the effectors on freshly prepared solutions of hemoglobin or red cell suspensions was measured by the change in p50, the partial pressure of oxygen for half-saturation. Oxygen equilibrium curves (OEC) were carried out with the Hemox analyzer (TCS, Southampton, Pa.) under the following conditions: pH 7.4, 140 mM NaCl and 50 mM bis-Tris buffer at 37° C. In all experiments, the concentration of hemoglobin in the red cell suspensions was 20-25 μM hemoglobin tetramer (Hb4) as measured by Drabkin's method (cyanomethemoglobin) at the end of each recording. The final concentration of the allosteric effector in the cuvette was 0.5 mM, resulting in an effector/Hb4 ratio of 20 in the absence of albumin. OEC were also made in the same buffer containing 12.5, 25, 50, and 100 μM HSA (for human red cell suspensions) or BSA (for bovine cell suspensions). The serum albumin experiments were carried out with traces of an antifoaming agent. This agent has no deleterious effect on the red cell suspensions. The molar ratio of albumin to tetrameric hemoglobin was varied from 0.5 (at 12.5 μM HSA) to 4 (at 100 μM HSA); in whole blood this ratio is approximately 0.3 (0.7 mM albumin plus plasma proteins/2.25 mM Hb4). Therefore, the concentration of albumin used in the present studies was always larger relative to tetrameric hemoglobin than that found in whole blood.
Bovine Red Cell Studies. […]

[2] = biological target: bovine hemoglobin (Bos taurus, UniProt P01966+P02070); experiment: Oxygen equilibrium of isolated bovine Hb solutions (p50); format: biochemical; settings: for p50 shift at increasing chloride concentration / Hb bovine(p50): bovine Hb solution; for p50 shift at increasing chloride concentration: 0.5 mM, chloride 0-400 mM; for Hb bovine(p50): effector 0.5 mM, pH 7.2, 100 mM NaCl, 25 °C
From the text: as §1
Bovine Red Cell Studies. Table 2 presents data for oxygen binding measurements for fresh bovine red blood cells and isolated Hb solutions on addition of the effectors L3,5, RSR-4, and RSR-13. The experimental conditions used were the same as described in conjunction with Table 1 for human red blood cells. The oxygen equilibrium curves for Hb solutions were made at pH 7.2, 100 mM NaCl and 50 mM bis-Tris buffer at 25° C. Catalase (20 μg/mL) and 50 μM EDTA were added to oppose oxidation of the hemes. The concentration of the effectors was 0.5 mM in all conditions. In Table 2, BSA is bovine serum albumin and P50 (mmHg) is the pO2 for 50% saturation.

[3] = test system: purified Hb Yakima; experiment: Effect on purified Hb Yakima; format: biochemical, human
[4] = biological target: deoxyhemoglobin (Homo sapiens, UniProt P68871+P69905); experiment: X-ray crystallographic studies with deoxyhemoglobin; format: binding
Protocol: X-ray Crystallographic Studies. Hemoglobin for the crystal studies was prepared from human blood, and T-state deoxy crystals were obtained from ammonium sulfate solutions. RSR-4 or RSR-13 (2 effectors/I Hb) was dissolved in a slight excess of sodium bicarbonate to facilitate dissolution and was added to a 6 g % solution of deoxy-Hb in the glove box. A 1 g % Hb RSR-4 or RSR-13 solution was added to each crystallization tube. Crystals grew in approximately 1 week. X-ray data were collected with Friedel pairs using ω scans on a Rigaku AFC5R diffractometer equipped with a rotating anode and a 60-cm long evacuated beam tunnel. The crystals with allosteric effectors were isomorphous with native deoxy-Hb: RSR-4, 63.2, 83.7, and 53.8 Å, 99.4°; RSR-13, 63.2, 83.6, and 53.7 Å, 99.5°. Data collection (RSR-4 to 2.4-Å and RSR-13 to 2.8-Å resolution) was controlled by TEXAN software from Molecular Structure Corp. (The Woodlands, Tex.). There was little radiation damage to crystals, and new crystals were mounted when standard reference reflection intensities fell by 10%. All data were corrected for radiation damage when appropriate. The R-factors for the Friedel pairs and derivatives vs. native were as follows: RSR-4 (2.4 Å), 14.6% and 18.9%, and RSR-13 (2.8 Å), 7.2% and 12.5%, respectively. The difference electron density maps were obtained using the Cambridge computer programs (CCP4). […] The allosteric effector molecules were well resolved and easily fit to the difference density.

[5] = biological target: hemoglobin in red cell suspensions (Homo sapiens, UniProt P68871+P69905); experiment: Allosteric effector activity in the presence of serum albumin in buffered red cell suspensions (FIG. 3); format: cell-based; settings: for effector activity in the presence of serum albumin: FIG. 3, effector 0.5 mM (L3,4,5 0.25 mM)
From the text: as §1, with “OEC were also made in the same buffer containing 12.5, 25, 50, and 100 μM HSA (for human red cell suspensions) or BSA (for bovine cell suspensions). The serum albumin experiments were carried out with traces of an antifoaming agent. This agent has no deleterious effect on the red cell suspensions. The molar ratio of albumin to tetrameric hemoglobin was varied from 0.5 (at 12.5 μM HSA) to 4 (at 100 μM HSA); in whole blood this ratio is approximately 0.3 (0.7 mM albumin plus plasma proteins/2.25 mM Hb4). Therefore, the concentration of albumin used in the present studies was always larger relative to tetrameric hemoglobin than that found in whole blood.” left out

Row | p50 shift at increasing chloride concentration [1] | HbA(p50) [1] [mmHg] | p50 shift at increasing chloride concentration [2] | Hb bovine(p50) [2] [mmHg] | potency in Hb solution ([2]; Hb solution studies, Table 2) | allosteric effector activity ([5]; 0.5 mM effector, in the presence of 50 μM albumin) | SMILES | state of purified Hb Yakima in the presence of effector [3] | second symmetry-related pair of binding sites ([4]; near Arg 104β) | effector activity in the presence of serum albumin [5] | binding site in deoxyhemoglobin crystal [4]
1 | identical at all chloride concentrations | 47 | identical at all chloride concentrations | 37 |  |  | CC(C)(Oc1ccc(NC(=O)Nc2cc(Cl)cc(Cl)c2)cc1)C(=O)O [L3,5, reference compound] | remains locked in the high-affinity R-state | have a second symmetry-related pair of binding sites near Arg 104β |  | 
2 | identical at all chloride concentrations | 35.5 | identical at all chloride concentrations | 59 | significantly larger than that of L3,5 |  | CC(C)(Oc1ccc(CC(=O)Nc2cc(Cl)cc(Cl)c2)cc1)C(=O)O [RSR-4, 2-[4-[[(3,5-dichloroanilino)carbonyl]methyl]phenoxy]-2-methylpropionic acid] | remains locked in the high-affinity R-state |  | greater than L3,5 and L3,4,5 at all serum albumin/Hb ratios studied | 
3 |  |  |  |  |  | greater than 90% | Cc1cc(C)cc(NC(=O)Cc2ccc(OC(C)(C)C(=O)O)cc2)c1 [RSR-13] |  |  | practically unaffected by serum albumin; also recorded: by far the least affected by serum albumin inhibition | bind in the central water cavity in a conformation identical to that found for RSR-4
